According to PMC9862037, “Interactions of Mycotoxin Alternariol with Cytochrome P450 Enzymes and OATP Transporters” (Metabolites, 2022):
Where two headings read alike, the source gives them in different places.

Key:
[1] = target: T1, CYP2C9 (Homo sapiens, UniProt P11712); experiment: biochemical
T1 construct: purchased Merck; host or cells: yeast (inferred from the description of the CYPnull control, 'processed identically')
Experimental: The potential inhibitory effects of AOH on CYP2C9, 2C19, 2D6, and 3A4 enzymes were tested in vitro employing CypExpress human kits, using the substrates recommended by the U.S. Food and Drug Administration (FDA; https://www.fda.gov/drugs/drug-interactions-labeling/drug-development-and-drug-interactions-table-substrates-inhibitors-and-inducers; accessed on 19 December 2022) (diclofenac, S-mephenytoin, dextromethorphan, and testosterone, respectively). […] In these assays, the substrates and products were quantified by HPLC-UV [28].
IC50 values were calculated by sigmoidal fitting (Hill1), using the Origin (version 2018, OriginLab Corporation, Northampton, MA, USA) software.
After CYP450 incubations, the product formation rate was investigated using an integrated HPLC system (Jasco, Tokyo, Japan) built up from an autosampler (AS-4050), a binary pump (PU-4180), and a UV detector (UV-975). Chromatographic data were evaluated employing ChromNAV2 software (Jasco, Tokyo, Japan). Quantitative determinations of 4′-hydroxydiclofenac and diclofenac (CYP2C9), 4-hydroxymephenytoin and mephenytoin (CYP2C19), dextromethorphan and dextrorphan (CYP2D6), as well as testosterone and 6β-hydroxytestosterone (CYP3A4) were carried out as previously reported, without modifications.

[2] = target: T2, CYP3A4 (Homo sapiens, UniProt P08684); assay type: in vitro ADME; conditions: 5 μM AOH; 120 min incubation; vs CYPnull
T2 construct: purchased Merck; host or cells: yeast (inferred from the description of the CYPnull control, 'processed identically')
T2 sequence (P08684 whole entry): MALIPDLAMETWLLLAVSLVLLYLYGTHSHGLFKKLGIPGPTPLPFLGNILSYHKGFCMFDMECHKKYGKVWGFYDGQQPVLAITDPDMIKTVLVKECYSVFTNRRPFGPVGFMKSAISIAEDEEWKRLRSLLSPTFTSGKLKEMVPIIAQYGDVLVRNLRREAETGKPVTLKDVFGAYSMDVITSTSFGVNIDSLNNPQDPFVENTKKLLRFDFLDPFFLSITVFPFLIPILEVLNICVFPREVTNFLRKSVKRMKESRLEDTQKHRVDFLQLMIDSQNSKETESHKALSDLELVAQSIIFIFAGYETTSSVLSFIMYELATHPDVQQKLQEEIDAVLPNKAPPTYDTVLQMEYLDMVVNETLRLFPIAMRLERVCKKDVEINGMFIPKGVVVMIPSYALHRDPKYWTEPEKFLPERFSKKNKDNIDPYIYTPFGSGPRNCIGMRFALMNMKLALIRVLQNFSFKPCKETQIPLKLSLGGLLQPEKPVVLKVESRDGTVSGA
Experimental: (§1) To test the potential biotransformation of AOH by CYPs, the changes in the concentrations of AOH were examined in the presence of CYP1A2, 2C9, 2C19, 2D6, or 3A4 enzymes. Samples (final volume: 200 μL) containing AOH (5 μM), glucose-6-phosphate (500 μM), nicotinamide adenine dinucleotide phosphate (NADP^+, 200 μM), and the enzymes (CypExpress Cytochrome P450 reagents: 15 mg/mL each; including both CYP and glucose-6-phosphate dehydrogenase enzymes) were incubated for 0, 30, 60, 90, and 120 min (700 rpm, 30 °C) in potassium phosphate buffer (0.05 M, pH 7.5). The reaction was stopped by the addition of ice-cold methanol (100 μL), then the samples were centrifuged (10 min, 14,000 g, room temperature). AOH content of the supernatants was directly analyzed by HPLC-FLD (see details in Section 2.7). As a control, CypExpress Control reagent (CYPnull; 15 mg/mL) was also applied, which is a permeabilized and stabilized dried yeast powder (produced using an empty vector) and processed identically to CypExpress Cytochrome P450 products.
(§2) In CYP experiments, AOH was quantified with the above-described HPLC system, except that a fluorescence detector (FP-920; Jasco, Tokyo, Japan) was applied. Samples (20 μL) were driven through a Phenomenex Security Guard (C18, 4.0 × 3.0 mm) precolumn (Phenomenex, Torrance, CA, USA) linked to a Kinetex EVO-C18 (250 × 4.6 mm, 5 μm; Phenomenex) analytical column with 1.0 mL/min flow rate, at room temperature. For the isocratic elution, a mobile phase with 1 mM phosphoric acid (pH 3.0) and acetonitrile (65:35 v/v%) was applied. AOH was detected at 455 nm (λex = 345 nm). Limit of detection (LOD) and limit of quantification (LOQ) were established as the lowest concentrations when the signal-to-noise ratios were three and ten, respectively. The major validation parameters of this HPLC-FLD method were the following: linearity (R^2 = 0.997, in the 100–1000 nM concentration range); LOD = 100 nM; LOQ = 200 nM; intraday precision = 2.9% (n = 7); accuracy = 3.4% (n = 7).

[3] = target: T3, CYP2C19 (Homo sapiens, UniProt P33261); assay type: in vitro ADME; conditions: 5 μM AOH; significant (p < 0.01) only after 120 min
T3 construct: purchased Merck; host or cells: yeast (inferred from the description of the CYPnull control, 'processed identically')
T3 sequence (P33261 whole entry): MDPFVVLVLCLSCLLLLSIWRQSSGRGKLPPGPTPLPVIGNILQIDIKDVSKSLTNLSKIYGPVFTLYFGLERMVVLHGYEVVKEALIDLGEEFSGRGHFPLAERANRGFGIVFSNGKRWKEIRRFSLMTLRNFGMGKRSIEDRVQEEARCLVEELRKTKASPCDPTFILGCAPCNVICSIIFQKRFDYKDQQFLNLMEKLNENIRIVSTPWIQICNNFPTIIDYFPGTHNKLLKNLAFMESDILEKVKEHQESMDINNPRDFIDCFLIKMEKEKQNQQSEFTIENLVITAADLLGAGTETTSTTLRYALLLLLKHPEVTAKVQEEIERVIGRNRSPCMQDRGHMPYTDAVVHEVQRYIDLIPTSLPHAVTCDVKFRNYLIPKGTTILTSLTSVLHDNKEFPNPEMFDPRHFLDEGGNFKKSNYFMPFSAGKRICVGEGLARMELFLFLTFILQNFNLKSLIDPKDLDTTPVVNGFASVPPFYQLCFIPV
Experimental: as §1, §2

[4] = target: T1, CYP2C9; assay type: in vitro ADME; conditions: 5 μM AOH; 120 min incubation; vs CYPnull
Experimental: as §1, §2

[5] = target: T4, CYP1A2 (Homo sapiens, UniProt P05177); assay type: in vitro ADME; conditions: 5 μM AOH
T4 construct: purchased Abcam ab211075
T4 sequence (P05177 whole entry): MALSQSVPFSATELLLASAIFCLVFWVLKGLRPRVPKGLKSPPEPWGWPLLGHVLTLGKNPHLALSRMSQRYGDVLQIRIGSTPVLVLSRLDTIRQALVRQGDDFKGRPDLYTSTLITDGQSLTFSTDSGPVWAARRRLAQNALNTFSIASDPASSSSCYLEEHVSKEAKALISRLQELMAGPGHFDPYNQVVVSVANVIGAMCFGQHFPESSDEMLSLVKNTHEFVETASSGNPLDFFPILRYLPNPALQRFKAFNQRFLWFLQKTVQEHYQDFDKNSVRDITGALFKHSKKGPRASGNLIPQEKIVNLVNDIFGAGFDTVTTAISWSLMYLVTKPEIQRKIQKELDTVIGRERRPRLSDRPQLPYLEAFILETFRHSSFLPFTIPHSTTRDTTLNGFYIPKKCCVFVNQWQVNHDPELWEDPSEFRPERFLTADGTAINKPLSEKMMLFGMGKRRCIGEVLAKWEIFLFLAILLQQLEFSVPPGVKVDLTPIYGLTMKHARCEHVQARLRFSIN
Experimental: as §1, §2

[6] = target: T5, CYP2D6 (Homo sapiens, UniProt P10635); assay type: in vitro ADME; conditions: 5 μM AOH; 120 min incubation; vs CYPnull
T5 construct: purchased Merck; host or cells: yeast (inferred from the description of the CYPnull control, 'processed identically')
T5 sequence (P10635 whole entry): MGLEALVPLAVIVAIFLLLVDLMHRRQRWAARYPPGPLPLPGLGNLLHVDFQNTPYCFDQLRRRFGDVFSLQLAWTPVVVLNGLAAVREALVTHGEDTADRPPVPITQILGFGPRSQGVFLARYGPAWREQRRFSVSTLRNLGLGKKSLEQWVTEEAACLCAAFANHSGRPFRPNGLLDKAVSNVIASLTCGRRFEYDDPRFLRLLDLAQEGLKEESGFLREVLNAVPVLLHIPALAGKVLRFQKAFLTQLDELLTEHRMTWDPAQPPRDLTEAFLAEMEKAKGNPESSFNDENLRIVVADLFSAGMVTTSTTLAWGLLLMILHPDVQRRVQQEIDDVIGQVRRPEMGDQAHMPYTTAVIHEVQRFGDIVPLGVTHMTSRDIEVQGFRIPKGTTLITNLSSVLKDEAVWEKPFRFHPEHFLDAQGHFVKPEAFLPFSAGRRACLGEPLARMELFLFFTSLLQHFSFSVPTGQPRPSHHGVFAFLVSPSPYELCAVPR
Experimental: as §1, §2

T1 sequence (P11712 whole entry): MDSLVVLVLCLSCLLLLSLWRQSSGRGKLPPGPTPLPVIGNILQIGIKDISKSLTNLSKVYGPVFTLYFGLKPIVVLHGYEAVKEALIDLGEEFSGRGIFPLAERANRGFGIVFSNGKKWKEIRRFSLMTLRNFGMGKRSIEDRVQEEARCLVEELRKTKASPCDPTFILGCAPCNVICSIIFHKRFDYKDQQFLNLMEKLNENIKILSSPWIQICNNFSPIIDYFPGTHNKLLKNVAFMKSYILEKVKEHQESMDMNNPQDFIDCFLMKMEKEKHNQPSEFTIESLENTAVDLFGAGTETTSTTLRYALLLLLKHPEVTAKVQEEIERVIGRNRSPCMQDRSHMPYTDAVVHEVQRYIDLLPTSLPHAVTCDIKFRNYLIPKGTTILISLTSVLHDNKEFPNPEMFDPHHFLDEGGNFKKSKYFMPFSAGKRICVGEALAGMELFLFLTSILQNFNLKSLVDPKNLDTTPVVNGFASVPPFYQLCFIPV

For Cc1cc(O)cc2oc(=O)c3c(O)cc(O)cc3c12 [AOH, Alternariol], the “decrease in the product formation (CYP2C9)” value ([1]; 50 μM AOH) was over 80%, the IC50 ([1]; diclofenac 4'-hydroxylation, read-out: IC50, CYP2C9 inhibition) was 7.4 µM and the “changes in AOH levels in the presence of CYP3A4” value [2] was “no relevant changes”. The “changes in AOH levels in the presence of CYP2C19” value [3] was “slight decrease”, the “changes in AOH levels in the presence of CYP2C9” value [4] was “no relevant changes” and the “depletion of AOH by CYP1A2” value ([5]; 60 min incubation) was 16%. The “depletion of AOH by CYP1A2” value ([5]; 120 min incubation) was 25% and the “changes in AOH levels in the presence of CYP2D6” value [6] was “no relevant changes”.
